# Laboratory results taken from ChEMBL document CHEMBL1770102, “Identification of novel potential antibiotics for tuberculosis by in silico structure-based drug screening” (Eur J Med Chem, 2011).
# pIC50: −log10 of the molar value. Active and inactive are the calls of the source. No cut-off for these calls is given here.
# Assays:
# [1] = system: Mycobacterium vanbaalenii; assay: Antibacterial activity against Mycobacterium vanbaalenii assessed as growth inhibition at 30 uM after 72 hrs by microplate reader; assay type: functional; conditions: Mycolicibacterium vanbaalenii
# [2] = system: Mycobacterium vanbaalenii; assay: Antibacterial activity against Mycobacterium vanbaalenii assessed as growth inhibition at 30 uM after 6 hrs by microplate reader; assay type: functional; conditions: Mycolicibacterium vanbaalenii
# MDCK = assay: Cytotoxicity against dog MDCK cells at 30 uM after 2 days by measuring absorbance at 460 nm; assay type: cell-based, Canis lupus familiaris; conditions: 48 h
# SH-SY5Y = assay: Cytotoxicity against human SH-SY5Y cells at 30 uM after 2 days by measuring absorbance at 460 nm; assay type: functional, cell-based
# [3] = system: Mycobacterium tuberculosis; assay: Antibacterial activity against Mycobacterium tuberculosis assessed as inhibition of cell growth after 24 hrs; assay type: functional, organism-based
# Rhodococcus opacus [4] = assay: Antibacterial activity against Rhodococcus opacus assessed as growth inhibition at 50 uM after 72 hrs by microplate reader; assay type: functional
# Rhodococcus opacus [5] = assay: Antibacterial activity against Rhodococcus opacus assessed as growth inhibition at 100 ug/ml after 72 hrs by microplate reader; assay type: functional
# [6] = system: Mycobacterium vanbaalenii; assay: Antibacterial activity against Mycobacterium vanbaalenii assessed as inhibition of cell growth after 24 hrs; assay type: functional, Mycolicibacterium vanbaalenii
# Escherichia coli [7] = assay: Toxicity against Escherichia coli BL21
# Rhodococcus opacus [8] = assay: Antibacterial activity against Rhodococcus opacus assessed as growth inhibition at 30 uM after 72 hrs by microplate reader; assay type: functional
# Escherichia coli [9] = assay: Toxicity against Escherichia coli JM109; assay type: organism-based; conditions: in vivo
smiles,measurement,setting,value
COC(=O)c1ccc(Cl)c(NC(=O)CN(c2ccc(OCc3ccccc3)cc2)S(C)(=O)=O)c1,growth inhibition (GI),[1],Active
same,growth inhibition (GI),[2],Active
CN(C(=O)CSc1nc(Nc2ccccc2)nc(N2CCOCC2)n1)C12CC3CC(CC(C3)C1)C2,growth inhibition (GI),[1],inactive
same,growth inhibition (GI),[2],Active
O=S(=O)(NCCc1ccccc1)c1cccc2c(S(=O)(=O)NCCc3ccccc3)cccc12,growth inhibition (GI),[2],inactive
COc1ccc(OC)c(NS(=O)(=O)c2ccc(NC(=O)CN3C(=O)c4cccc5cccc3c45)cc2)c1,Activity,MDCK,Toxic
same,Activity,SH-SY5Y,Toxic
same,growth inhibition (GI),[1],Active
same,growth inhibition (GI),[2],Active
NNC(=O)c1ccncc1 [ISONIAZID],pIC50,[3],4.82
same,growth inhibition (GI),Rhodococcus opacus [4],Active
same,growth inhibition (GI),[1],Active
CC1(C)S[C@@H]2[C@H](NC(=O)[C@H](N)c3ccccc3)C(=O)N2[C@H]1C(=O)O,growth inhibition (GI),Rhodococcus opacus [5],Active
COc1cc2c(cc1NC(=O)CSc1nnc(-c3ccccc3C)n1Cc1ccoc1)oc1ccccc12,pIC50,[6],5.28
same,Activity,MDCK,Non-toxic
same,Activity,SH-SY5Y,Not toxic
same,Activity,Escherichia coli [7],Non-toxic
same,growth inhibition (GI),Rhodococcus opacus [8],Active
same,Activity,Escherichia coli [9],Non-toxic
same,growth inhibition (GI),[1],Active
same,growth inhibition (GI),[2],Active
